According to ChEMBL document CHEMBL1909046, “DrugMatrix in vitro pharmacology data”:

How the values were obtained:
[1] = biological target: T1, B2 bradykinin receptor (Homo sapiens, UniProt P30411); type: cell membranes, Membrane; conditions: chem-1; also: in other assays of this panel Not Active means under 50% inhibition at 10 µM
T1 sequence (P30411 whole entry): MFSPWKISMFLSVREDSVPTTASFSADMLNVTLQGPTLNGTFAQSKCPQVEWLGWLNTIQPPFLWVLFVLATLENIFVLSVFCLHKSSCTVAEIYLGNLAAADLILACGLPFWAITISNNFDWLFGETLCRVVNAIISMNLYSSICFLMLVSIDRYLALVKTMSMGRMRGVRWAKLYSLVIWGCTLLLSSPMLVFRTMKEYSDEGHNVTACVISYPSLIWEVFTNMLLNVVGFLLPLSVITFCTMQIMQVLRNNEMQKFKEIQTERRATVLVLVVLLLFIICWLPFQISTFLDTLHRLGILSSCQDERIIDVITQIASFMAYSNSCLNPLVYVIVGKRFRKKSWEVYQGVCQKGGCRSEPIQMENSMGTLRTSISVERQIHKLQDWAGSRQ

[2] = DRUGMATRIX: Tumor Necrosis Factor (TNF), Non-Selective radioligand binding (ligand: [125I] TNF-alpha); type: cell membranes, Membrane; conditions: u-937; Not Active = under 50% inhibition at 10 µM
[3] = biological target: T2, Nitric oxide synthase, inducible (Mus musculus, UniProt P29477); parameters: species or system Escherichia coli;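 also: inhibition of iNOS enzyme activity measured with L-arginine as substrate; in other assays of this panel Not Active means under 50% inhibition at 10 µM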
T2 sequence (P29477 whole entry): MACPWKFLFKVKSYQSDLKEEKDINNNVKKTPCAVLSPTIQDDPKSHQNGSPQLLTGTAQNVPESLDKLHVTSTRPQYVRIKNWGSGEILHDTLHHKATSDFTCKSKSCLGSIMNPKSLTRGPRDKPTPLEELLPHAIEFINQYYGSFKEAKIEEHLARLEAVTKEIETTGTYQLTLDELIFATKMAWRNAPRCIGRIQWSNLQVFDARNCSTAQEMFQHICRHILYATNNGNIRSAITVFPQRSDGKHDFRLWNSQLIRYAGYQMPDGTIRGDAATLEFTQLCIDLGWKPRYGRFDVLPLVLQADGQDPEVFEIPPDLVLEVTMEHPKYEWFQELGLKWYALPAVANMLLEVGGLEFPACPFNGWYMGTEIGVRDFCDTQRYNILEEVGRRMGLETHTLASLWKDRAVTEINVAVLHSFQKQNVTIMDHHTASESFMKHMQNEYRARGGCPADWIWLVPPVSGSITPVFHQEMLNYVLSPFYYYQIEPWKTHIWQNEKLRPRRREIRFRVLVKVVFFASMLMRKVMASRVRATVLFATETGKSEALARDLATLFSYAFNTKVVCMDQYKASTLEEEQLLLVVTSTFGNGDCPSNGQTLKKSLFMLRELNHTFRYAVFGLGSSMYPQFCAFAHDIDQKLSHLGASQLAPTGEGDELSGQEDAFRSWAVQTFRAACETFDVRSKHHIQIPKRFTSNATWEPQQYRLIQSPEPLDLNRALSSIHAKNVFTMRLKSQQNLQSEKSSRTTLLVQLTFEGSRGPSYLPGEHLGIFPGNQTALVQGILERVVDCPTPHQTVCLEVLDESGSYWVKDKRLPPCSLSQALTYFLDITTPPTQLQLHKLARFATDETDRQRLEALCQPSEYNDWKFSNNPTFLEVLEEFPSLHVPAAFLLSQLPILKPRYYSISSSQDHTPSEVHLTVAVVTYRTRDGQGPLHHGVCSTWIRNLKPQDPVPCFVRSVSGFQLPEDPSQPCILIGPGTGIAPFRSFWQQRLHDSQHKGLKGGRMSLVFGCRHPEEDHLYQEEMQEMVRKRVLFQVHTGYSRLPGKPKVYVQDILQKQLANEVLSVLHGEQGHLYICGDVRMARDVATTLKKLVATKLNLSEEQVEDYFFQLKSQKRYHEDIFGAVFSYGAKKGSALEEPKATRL

[4] = biological target: T3, Cathepsin G (Homo sapiens, UniProt P08311); type: tissue-based; conditions: neutrophil;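 also: inhibition of Cathepsin G enzyme activity, tested on an AMC-conjugated peptide substrate; in other assays of this panel Not Active means under 50% inhibition at 10 µM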
T3 sequence (P08311 whole entry): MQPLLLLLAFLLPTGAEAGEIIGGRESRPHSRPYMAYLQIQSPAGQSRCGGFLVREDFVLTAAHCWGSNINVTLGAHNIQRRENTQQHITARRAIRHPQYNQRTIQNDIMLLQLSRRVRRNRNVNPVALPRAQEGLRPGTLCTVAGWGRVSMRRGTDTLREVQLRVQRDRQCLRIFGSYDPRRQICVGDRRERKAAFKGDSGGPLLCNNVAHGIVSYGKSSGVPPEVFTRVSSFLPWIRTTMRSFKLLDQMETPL

[5] = biological target: Platelet-activating factor receptor (Homo sapiens, UniProt P25105); assay: biochemical; type: tissue-based; conditions: platelet; also: in other assays of this panel Not Active means under 50% inhibition at 10 µM
[6] = biological target: Sodium-dependent dopamine transporter (Homo sapiens, UniProt Q01959); assay: DRUGMATRIX: Dopamine Transporter radioligand binding (ligand: [125I] RTI-55); type: cell membranes, CHO-K1, Membrane; conditions: cho-k1; Not Active = under 50% inhibition at 10 µM
[7] = biological target: Melanocortin receptor 5 (Homo sapiens, UniProt P33032); type: cell membranes, HEK293, Membrane; conditions: hek293; also: in other assays of this panel Not Active means under 50% inhibition at 10 µM
[8] = biological target: T4, Leukotriene C4 synthase (Cavia porcellus, UniProt A6XA80); assay: biochemical; type: tissue-based, Lung
T4 sequence (A6XA80 whole entry): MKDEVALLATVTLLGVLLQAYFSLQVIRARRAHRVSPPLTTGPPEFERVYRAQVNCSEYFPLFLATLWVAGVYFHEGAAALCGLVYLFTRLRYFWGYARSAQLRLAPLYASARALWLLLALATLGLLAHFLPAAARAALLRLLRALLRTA

[9] = DRUGMATRIX: beta-Lactamase enzyme inhibition (substrate: Nitrocefin); parameters: species or system Bacillus cereus; conditions: Not Active = under 50% inhibition at 10 µM
[10] = biological target: Cannabinoid receptor 1 (Homo sapiens, UniProt P21554); type: cell membranes, Membrane; conditions: chem-1; also: in other assays of this panel Not Active means under 50% inhibition at 10 µM
[11] = biological target: Carbonic anhydrase 2 (Homo sapiens, UniProt P00918); assay: DRUGMATRIX: Carbonic Anhydrase II enzyme inhibition (substrate: 4-Nitrophenyl acetate (4-NPA)); type: tissue-based, Erythrocyte; conditions: erythrocyte; Not Active = under 50% inhibition at 10 µM
[12] = DRUGMATRIX: Sigma2 radioligand binding (ligand: [3H] Ifenprodil); type: cell membranes, Rattus norvegicus, Wistar, Brain, Membrane; conditions: Not Active = under 50% inhibition at 10 µM

Sodium-dependent dopamine transporter, sequence (Q01959 whole entry): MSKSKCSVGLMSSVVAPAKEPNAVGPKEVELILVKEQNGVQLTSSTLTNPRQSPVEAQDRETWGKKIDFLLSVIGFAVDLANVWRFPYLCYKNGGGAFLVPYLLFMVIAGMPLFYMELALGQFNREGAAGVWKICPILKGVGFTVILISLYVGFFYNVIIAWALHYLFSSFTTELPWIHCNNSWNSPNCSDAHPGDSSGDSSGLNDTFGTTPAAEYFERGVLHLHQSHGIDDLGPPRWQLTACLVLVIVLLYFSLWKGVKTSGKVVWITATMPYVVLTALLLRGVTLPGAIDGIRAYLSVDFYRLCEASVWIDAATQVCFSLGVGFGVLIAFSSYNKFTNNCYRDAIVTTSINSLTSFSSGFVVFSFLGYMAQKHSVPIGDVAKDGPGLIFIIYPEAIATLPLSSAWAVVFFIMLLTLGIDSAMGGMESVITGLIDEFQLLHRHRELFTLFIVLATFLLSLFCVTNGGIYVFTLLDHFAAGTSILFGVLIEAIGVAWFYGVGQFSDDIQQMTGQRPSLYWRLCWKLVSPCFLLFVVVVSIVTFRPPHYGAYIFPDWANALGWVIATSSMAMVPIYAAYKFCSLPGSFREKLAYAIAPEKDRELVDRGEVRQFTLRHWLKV
Cannabinoid receptor 1, sequence (P21554 whole entry): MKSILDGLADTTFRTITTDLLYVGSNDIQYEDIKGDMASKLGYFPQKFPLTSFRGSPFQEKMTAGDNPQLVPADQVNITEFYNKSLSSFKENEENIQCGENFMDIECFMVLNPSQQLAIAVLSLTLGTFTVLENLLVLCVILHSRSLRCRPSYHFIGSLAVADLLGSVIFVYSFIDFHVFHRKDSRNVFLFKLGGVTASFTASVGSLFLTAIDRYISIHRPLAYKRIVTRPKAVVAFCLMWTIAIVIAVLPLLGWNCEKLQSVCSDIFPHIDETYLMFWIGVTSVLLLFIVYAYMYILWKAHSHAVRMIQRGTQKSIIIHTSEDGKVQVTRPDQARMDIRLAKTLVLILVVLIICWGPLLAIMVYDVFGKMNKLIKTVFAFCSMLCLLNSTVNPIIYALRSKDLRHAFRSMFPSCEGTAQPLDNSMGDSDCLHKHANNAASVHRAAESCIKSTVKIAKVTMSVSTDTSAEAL
Melanocortin receptor 5, sequence (P33032 whole entry): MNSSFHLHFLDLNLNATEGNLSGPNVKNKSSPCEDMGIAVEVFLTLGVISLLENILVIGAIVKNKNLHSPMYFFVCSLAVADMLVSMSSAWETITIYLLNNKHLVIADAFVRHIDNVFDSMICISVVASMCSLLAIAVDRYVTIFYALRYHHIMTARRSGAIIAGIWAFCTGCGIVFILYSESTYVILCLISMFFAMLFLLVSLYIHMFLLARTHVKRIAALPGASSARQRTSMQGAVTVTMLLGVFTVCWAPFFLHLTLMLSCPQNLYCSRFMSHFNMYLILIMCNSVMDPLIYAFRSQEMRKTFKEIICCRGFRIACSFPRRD
Platelet-activating factor receptor, sequence (P25105 whole entry): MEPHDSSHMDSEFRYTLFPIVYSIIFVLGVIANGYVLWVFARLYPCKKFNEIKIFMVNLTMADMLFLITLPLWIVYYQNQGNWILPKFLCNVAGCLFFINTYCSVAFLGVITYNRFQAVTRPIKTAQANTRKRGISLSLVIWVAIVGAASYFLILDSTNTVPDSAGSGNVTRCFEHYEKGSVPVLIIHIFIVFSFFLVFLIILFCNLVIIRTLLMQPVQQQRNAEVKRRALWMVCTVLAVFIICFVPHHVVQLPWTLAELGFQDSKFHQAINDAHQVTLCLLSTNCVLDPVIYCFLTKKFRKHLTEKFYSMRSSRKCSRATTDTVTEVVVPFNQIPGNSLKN

CARBOPLATIN
Not Active: IC50 [1] | Ki [1] | IC50 [2] | Ki [2] | IC50 [3] | Ki [3] | IC50 [4] | Ki [4] | IC50 [5] | Ki [5] | IC50 [6] | Ki [6] | IC50 [7] | Ki [7] | IC50 [8] | Ki [8] | IC50 [9] | Ki [9] | IC50 [10] | Ki [10] | IC50 [11] | Ki [11] | IC50 [12] | Ki [12]
